Holding throughout (test): relative viability (nuclei count vs DMSO), 5 days (fraction); higher = more cells survive
Compound in experiment [1]: CN(C)CC1=CC(=CC=C1)N=C(C2=CC=CC=C2)C3=C(NC4=C3C=CC(=C4)C(=O)N(C)C)O + CC(C)C[C@H](NC(=O)[C@H](Cc1ccccc1)NC(=O)c1cnccn1)B(O)O [Bortezomib] (partner 0.002 µM)
Summed up: (§1)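 Values are medians from duplicate plates. Each reflects relative viability, defined as the nuclei count of treated wells over that of vehicle wells. Lung cancer cell lines in 1536-well plates were pin-tool dosed one day after seeding with one drug alone or with a fixed anchor-drug dose plus five library-drug doses (not always all listed) in √10 steps, then fixed, stained and imaged at 4× after 5 days.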

Compound in experiment [2]: CN(C)CC1=CC(=CC=C1)N=C(C2=CC=CC=C2)C3=C(NC4=C3C=CC(=C4)C(=O)N(C)C)O + Cc1nc(NC(=O)N2CCC[C@H]2C(N)=O)sc1-c1ccnc(C(C)(C)C(F)(F)F)c1 [Alpelisib] (partner 2 µM)
Summed up:
as §1

Compound in experiment [3]: CN(C)CC1=CC(=CC=C1)N=C(C2=CC=CC=C2)C3=C(NC4=C3C=CC(=C4)C(=O)N(C)C)O + O=C(c1cc(Cc2n[nH]c(=O)c3ccccc23)ccc1F)N1CCN(C(=O)C2CC2)CC1 [Olaparib] (partner 8 µM)
In short, it runs like this: as §1

Compound in experiment [4]: CN(C)CC1=CC(=CC=C1)N=C(C2=CC=CC=C2)C3=C(NC4=C3C=CC(=C4)C(=O)N(C)C)O + Nc1nc2[nH]cc(CCc3ccc(C(=O)N[C@@H](CCC(=O)O)C(=O)O)cc3)c2c(=O)[nH]1 [Pemetrexed] (partner 0.2 µM)
In short, it runs like this:
as §1

Take NCI-H520: the relative viability in experiment [1] (first compound 0.08 µM) turned out to be 0.593; in experiment [1] (first compound 0.253 µM) it was 0.455; in experiment [1] (first compound 0.8 µM), 0.651; in experiment [1] (first compound 2.53 µM), 0.658; in experiment [1] (first compound 8 µM), 0.552; in experiment [2] (first compound 0.08 µM), 0.865. Besides, the relative viability came out at 0.871 in experiment [2] (first compound 0.253 µM); 0.825 in experiment [2] (first compound 0.8 µM); 0.725 in experiment [2] (first compound 2.53 µM); 0.656 in experiment [2] (first compound 8 µM); 0.378 in experiment [3] (first compound 0.08 µM); 0.352 in experiment [3] (first compound 0.253 µM). In addition, the relative viability in experiment [3] (first compound 0.8 µM) was 0.284; in experiment [3] (first compound 2.53 µM), 0.298; in experiment [3] (first compound 8 µM), 0.286; in experiment [4] (first compound 0.08 µM), 0.688; in experiment [4] (first compound 0.253 µM), 0.654; in experiment [4] (first compound 0.8 µM), 0.737. Also, the relative viability was determined as 0.563 in experiment [4] (first compound 2.53 µM) and 0.435 in experiment [4] (first compound 8 µM).

Consider NCI-H596, for which the relative viability came out at 1.05 in experiment [1] (first compound 0.08 µM); 1.17 in experiment [1] (first compound 0.253 µM); 1.07 in experiment [1] (first compound 0.8 µM); 1.11 in experiment [1] (first compound 2.53 µM); 1.26 in experiment [1] (first compound 8 µM); 0.504 in experiment [2] (first compound 0.08 µM). The relative viability in experiment [2] (first compound 0.253 µM) amounted to 0.491; in experiment [2] (first compound 0.8 µM), 0.459; in experiment [2] (first compound 2.53 µM), 0.536; in experiment [2] (first compound 8 µM), 0.447; in experiment [3] (first compound 0.08 µM), 0.692; in experiment [3] (first compound 0.253 µM) it was 0.718. The relative viability in experiment [3] (first compound 0.8 µM) was determined as 0.695; in experiment [3] (first compound 2.53 µM) it was 0.69; in experiment [3] (first compound 8 µM) it was 0.861; in experiment [4] (first compound 0.08 µM) it was 0.493; in experiment [4] (first compound 0.253 µM) it was 0.554; in experiment [4] (first compound 0.8 µM), 0.484. The relative viability was 0.502 in experiment [4] (first compound 2.53 µM) and 0.521 in experiment [4] (first compound 8 µM).

Take NCI-H647: the relative viability in experiment [1] (first compound 0.08 µM) worked out at 1.02; in experiment [1] (first compound 0.253 µM) it was 1.01; in experiment [1] (first compound 0.8 µM) it was 1.01; in experiment [1] (first compound 2.53 µM), 0.846; in experiment [1] (first compound 8 µM), 0.776; in experiment [2] (first compound 0.08 µM), 1.2. Also, the relative viability in experiment [2] (first compound 0.253 µM) came to 1.14; in experiment [2] (first compound 0.8 µM) it was 1.14; in experiment [2] (first compound 2.53 µM), 0.98; in experiment [2] (first compound 8 µM), 0.66; in experiment [3] (first compound 0.08 µM), 0.386; in experiment [3] (first compound 0.253 µM), 0.579. Besides, the relative viability in experiment [3] (first compound 0.8 µM) is 0.523; in experiment [3] (first compound 2.53 µM), 0.575; in experiment [3] (first compound 8 µM), 0.305; in experiment [4] (first compound 0.08 µM), 0.179; in experiment [4] (first compound 0.253 µM), 0.181; in experiment [4] (first compound 0.8 µM) it was 0.147. Also, the relative viability is 0.172 in experiment [4] (first compound 2.53 µM) and 0.181 in experiment [4] (first compound 8 µM).

For NCI-H650, the relative viability in experiment [1] (first compound 0.08 µM) was 0.695; in experiment [1] (first compound 0.253 µM), 0.993; in experiment [1] (first compound 0.8 µM) it was 0.767; in experiment [1] (first compound 2.53 µM), 0.717; in experiment [1] (first compound 8 µM), 0.661; in experiment [2] (first compound 0.08 µM) it was 1.05. Also, the relative viability in experiment [2] (first compound 0.253 µM) amounted to 0.956; in experiment [2] (first compound 0.8 µM), 1.2; in experiment [2] (first compound 2.53 µM) it was 0.945; in experiment [2] (first compound 8 µM), 0.825; in experiment [3] (first compound 0.08 µM) it was 0.418; in experiment [3] (first compound 0.253 µM), 0.395. Besides, the relative viability came out at 0.448 in experiment [3] (first compound 0.8 µM); 0.359 in experiment [3] (first compound 2.53 µM); 0.406 in experiment [3] (first compound 8 µM); 0.933 in experiment [4] (first compound 0.08 µM); 1.14 in experiment [4] (first compound 0.253 µM); 1.15 in experiment [4] (first compound 0.8 µM). The relative viability came out at 0.979 in experiment [4] (first compound 2.53 µM) and 0.831 in experiment [4] (first compound 8 µM).

As to NCI-H661, the relative viability was 0.897 in experiment [1] (first compound 0.08 µM); 0.707 in experiment [1] (first compound 0.253 µM); 0.918 in experiment [1] (first compound 0.8 µM); 0.873 in experiment [1] (first compound 2.53 µM); 0.607 in experiment [1] (first compound 8 µM); 0.67 in experiment [2] (first compound 0.08 µM). Besides, the relative viability was 0.635 in experiment [2] (first compound 0.253 µM); 0.37 in experiment [2] (first compound 0.8 µM); 0.685 in experiment [2] (first compound 2.53 µM); 0.614 in experiment [2] (first compound 8 µM); 0.739 in experiment [3] (first compound 0.08 µM); 0.697 in experiment [3] (first compound 0.253 µM). Further, the relative viability in experiment [3] (first compound 0.8 µM) was 0.74; in experiment [3] (first compound 2.53 µM) it was 0.649; in experiment [3] (first compound 8 µM), 0.706; in experiment [4] (first compound 0.08 µM), 0.867; in experiment [4] (first compound 0.253 µM), 0.901; in experiment [4] (first compound 0.8 µM), 0.935. Further, the results for the relative viability in experiment [4] (first compound 2.53 µM) and in experiment [4] (first compound 8 µM) were 0.928 and 0.907, respectively.

NCI-H838: the relative viability in experiment [1] (first compound 0.08 µM) turned out to be 0.792; in experiment [1] (first compound 0.253 µM), 0.8; in experiment [1] (first compound 0.8 µM) it was 0.916; in experiment [1] (first compound 2.53 µM) it was 0.757; in experiment [1] (first compound 8 µM) it was 0.73; in experiment [2] (first compound 0.08 µM) it was 1.06. Also, the relative viability is 0.956 in experiment [2] (first compound 0.253 µM); 0.977 in experiment [2] (first compound 0.8 µM); 0.883 in experiment [2] (first compound 2.53 µM); 0.934 in experiment [2] (first compound 8 µM); 0.789 in experiment [3] (first compound 0.08 µM); 0.901 in experiment [3] (first compound 0.253 µM). Besides, the relative viability was determined as 0.751 in experiment [3] (first compound 0.8 µM); 0.726 in experiment [3] (first compound 2.53 µM); 0.665 in experiment [3] (first compound 8 µM); 0.247 in experiment [4] (first compound 0.08 µM); 0.243 in experiment [4] (first compound 0.253 µM); 0.23 in experiment [4] (first compound 0.8 µM). Further, the relative viability is 0.213 in experiment [4] (first compound 2.53 µM) and 0.253 in experiment [4] (first compound 8 µM).

For the origin of these results see the supplement of paper PMC10307832.
